Assays:
human erythrocytes = test: GSH:GSSG ratio in treated human erythrocytes; conditions: 24 hours, 0.6% hematocrit, DMSO control 125:1
[1] = biological target: T1, glutathione reductase (GR) (Homo sapiens, UniProt P00390); test: Glutathione reductase (GR) enzyme activity in lysates of treated human erythrocytes; conditions: for inhibition of the enzyme GR: concentration not given
T1 sequence (P00390 1-479 isoform P00390-2): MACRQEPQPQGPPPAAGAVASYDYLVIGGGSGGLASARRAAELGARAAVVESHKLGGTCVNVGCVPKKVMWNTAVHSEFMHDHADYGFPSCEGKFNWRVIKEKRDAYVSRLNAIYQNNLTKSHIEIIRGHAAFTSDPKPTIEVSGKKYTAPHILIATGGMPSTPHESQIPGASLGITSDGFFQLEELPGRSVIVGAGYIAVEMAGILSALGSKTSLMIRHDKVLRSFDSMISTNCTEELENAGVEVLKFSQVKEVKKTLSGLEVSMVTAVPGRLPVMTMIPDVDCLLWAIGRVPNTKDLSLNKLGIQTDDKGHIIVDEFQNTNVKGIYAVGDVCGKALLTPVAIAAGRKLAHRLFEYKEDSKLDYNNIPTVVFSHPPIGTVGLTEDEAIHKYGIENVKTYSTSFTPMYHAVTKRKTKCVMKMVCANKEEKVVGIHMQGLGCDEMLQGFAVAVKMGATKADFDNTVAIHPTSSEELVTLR

[2] = biological target: glucose-6-phosphate dehydrogenase (G6PDH) (Homo sapiens, UniProt P11413); test: G6PDH enzyme activity in lysates of treated human erythrocytes; design: inhibition of the G6PDH activity: dose or concentration left out as unconfirmed
glucose-6-phosphate dehydrogenase (G6PDH), sequence (P11413 whole entry): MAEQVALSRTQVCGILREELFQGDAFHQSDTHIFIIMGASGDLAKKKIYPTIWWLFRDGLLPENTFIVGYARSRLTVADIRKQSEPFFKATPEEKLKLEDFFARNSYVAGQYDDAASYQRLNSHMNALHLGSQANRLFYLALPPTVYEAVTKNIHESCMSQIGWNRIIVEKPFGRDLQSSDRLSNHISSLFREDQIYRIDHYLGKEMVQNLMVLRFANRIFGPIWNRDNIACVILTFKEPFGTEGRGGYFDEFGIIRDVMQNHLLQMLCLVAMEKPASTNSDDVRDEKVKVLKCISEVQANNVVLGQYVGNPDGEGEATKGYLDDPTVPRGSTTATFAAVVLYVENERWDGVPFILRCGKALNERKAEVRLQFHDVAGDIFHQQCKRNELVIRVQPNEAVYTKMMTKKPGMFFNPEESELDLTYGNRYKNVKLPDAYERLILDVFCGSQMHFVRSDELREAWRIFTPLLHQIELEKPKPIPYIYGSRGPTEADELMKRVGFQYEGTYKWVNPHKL

SMILES | GSH:GSSG ratio (human erythrocytes; 20 μM) | GSR inhibition ([1]; 20 μM, erythrocytes 0.6% Hct treated 24 hours) | inhibition of the enzyme GR [1] | inhibition of the G6PDH activity ([2]; (clinically relevant concentration), erythrocytes treated 24 hours) | inhibition of G6PDH ([2]; already in low concentrations) | inhibition at 20 µM ([2]; read-out: G6PDH-inhibition) [%] | GSH:GSSG ratio (human erythrocytes; 140 μM) | inhibition at 140 µM ([1]; read-out: GR inhibition) [%] | inhibition at 140 µM ([2]; read-out: inhibition of G6PDH) [%]
Cc1ccc(S(=O)(=O)/C=C/C#N)cc1 [Bay 11-7082, 3-[(4-methylphenyl)sulfonyl]-(2E)-propenenitrile] | equal to 0 or approaching 0 | complete GSR inhibition | completely | complete inhibition | complete | 100 |  |  | 
COC(=O)/C=C/C(=O)OC [dimethylfumarate, (E)-2-butenedioic acid dimethyl ester] |  |  | 50% |  |  |  | equal to 0 or approaching 0 | ≥ 50 | ≥ 50

From patent US10420746B2, “Pharmaceutical composition containing Bay 11-7082, parthenolide or a combination thereof for the treatment of obesity or cardiovascular diseases” (priority 2015, dated 2019)
